pIC50, pKi: −log10 of the molar value.
Columns and labels:
Carbonic anhydrase 9 = Carbonic anhydrase 9 (Homo sapiens, UniProt Q16790); assay: Inhibition of recombinant human carbonic anhydrase 9 assessed as inhibition of CO2 hydration preincubated for 15 mins prior to testing by phenol red based stopped-flow assay
MDA-MB-231 = assay: Cytotoxicity against human MDA-MB-231 cells under hypoxic condition by MTT assay
MCF7 = assay: Cytotoxicity against human MCF7 cells under hypoxic condition by MTT assay

Structure (SMILES) | pKi (Carbonic anhydrase 9) | pIC50 (MDA-MB-231) | pIC50 (MCF7)
Cc1ccc(S(=O)(=O)C/C(=N\Nc2ccc(S(N)(=O)=O)cc2)c2ccc(Cl)cc2)cc1 | 8.06 | 4.74 | 5.41
NS(=O)(=O)c1ccc(N/N=C(\CS(=O)(=O)c2ccccc2)c2ccc([N+](=O)[O-])cc2)cc1 | 7.15 |  | 
NS(=O)(=O)c1ccc(N/N=C(\CS(=O)(=O)c2ccccc2)c2ccco2)cc1 | 7.10 |  | 
COc1cccc2c1C(=O)c1c(O)c3c(c(O)c1C2=O)C[C@@](O)(C(=O)CO)C[C@@H]3O[C@H]1C[C@H](N)[C@H](O)[C@H](C)O1 [DOXORUBICIN] |  |  | 6.43
Cc1ccc(S(=O)(=O)C/C(=N\Nc2ccc(S(N)(=O)=O)cc2)c2ccc(Br)cc2)cc1 | 7.25 |  | 
Cc1ccc(S(=O)(=O)C/C(=N\Nc2ccc(S(N)(=O)=O)cc2)c2ccc3ccccc3c2)cc1 | 7.82 |  | 
NS(=O)(=O)c1ccc(N/N=C(\CS(=O)(=O)c2ccccc2)c2cc3ccccc3o2)cc1 | 7.16 |  | 
NS(=O)(=O)c1ccc(N/N=C(\CS(=O)(=O)c2ccccc2)c2ccc(Cl)cc2)cc1 | 7.46 |  | 
Cc1ccc(S(=O)(=O)C/C(=N\Nc2ccc(S(N)(=O)=O)cc2)c2ccsc2)cc1 | 7.25 |  | 
Cc1ccc(S(=O)(=O)C/C(=N\Nc2ccc(S(N)(=O)=O)cc2)c2ccccc2)cc1 | 7.40 |  | 
Cc1ccc(S(=O)(=O)C/C(=N\Nc2ccc(S(N)(=O)=O)cc2)c2ccc([N+](=O)[O-])cc2)cc1 | 7.10 |  | 
NS(=O)(=O)c1ccc(N/N=C(\CS(=O)(=O)c2ccccc2)c2ccc3ccccc3c2)cc1 | 7.41 |  | 
NS(=O)(=O)c1ccc(N/N=C(\CS(=O)(=O)c2ccccc2)c2ccc(F)cc2)cc1 | 8.12 |  | 
Cc1ccc(/C(CS(=O)(=O)c2ccc(C)cc2)=N/Nc2ccc(S(N)(=O)=O)cc2)cc1 | 8.28 | 5.29 | 5.63
Cc1ccc(S(=O)(=O)C/C(=N\Nc2ccc(S(N)(=O)=O)cc2)c2ccc(F)cc2)cc1 | 7.56 |  | 
NS(=O)(=O)c1ccc(N/N=C(\CS(=O)(=O)c2ccccc2)c2ccc(Br)cc2)cc1 | 7.21 |  | 
Cc1ccc(/C(CS(=O)(=O)c2ccccc2)=N/Nc2ccc(S(N)(=O)=O)cc2)cc1 | 7.44 |  | 
NS(=O)(=O)c1ccc(N/N=C(\CS(=O)(=O)c2ccccc2)c2ccc(-c3ccccc3)cc2)cc1 | 6.88 |  | 

From ChEMBL document CHEMBL4152225, “Dual-tail arylsulfone-based benzenesulfonamides differently match the hydrophobic and hydrophilic halves of human carbonic anhydrases active sites: Selective inhibitors for the tumor-associated hCA IX isoform” (Eur J Med Chem, 2018)
